Measured values published in US7592188B2, “Live cell biosensors” (The Scripps Research Institute, priority 2004, dated 2009).

Tests used:
[1] = Photophysical properties of dyes in various solvents (absorbance, emission, quantum yield); type: physicochemical; parameters: ε × F / ε × Φ: unit not given here; conditions: for Emission λmax / absorption λmax / Φ (quantum yield of fluorescence) / ε (molar extinction coefficient) / ε × Φ: reactive forms
Description: Analytical grade reagents were purchased from major suppliers. […] Emission and excitation spectra were obtained using a Spex Fluorolog 2 spectrofluorometer at 23° C. […] Demas et al., J. Phys. […] All operations with dyes were performed under dim light. Flasks containing dyes were wrapped with aluminum foil.

Cdc42 activation = assay: Peripheral Cdc42 activation in cells treated with cytoskeletal agents; type: cell-based
Description: Microtubules or actin may direct Cdc42 activation to specific peripheral locations. This possibility was explored by treating cells with the microtubule-depolymerizing agents nocodazole and colchicine, or with cytochalasin D, an inhibitor of actin polymerization. […] Microtubules may therefore localize interactions between Cdc42 and guanine nucleotide exchange factors by directing vesicle trafficking or regulating events at adhesion complexes.

| Molecule | Emission λmax ([1]; solvent BuOH) [nm] | absorption λmax ([1]; solvent BuOH) [nm] | Φ (quantum yield of fluorescence) ([1]; solvent BuOH) | ε (molar extinction coefficient) ([1]; solvent BuOH) | ε × Φ ([1]; solvent BuOH) | Emission λmax ([1]; solvent H2O) [nm] | absorption λmax ([1]; solvent H2O) [nm] | Φ (quantum yield of fluorescence) ([1]; solvent H2O) | ε (molar extinction coefficient) ([1]; solvent H2O) | ε × Φ ([1]; solvent H2O) | Emission λmax ([1]; solvent MeOH) [nm] | absorption λmax ([1]; solvent MeOH) [nm] | Φ (quantum yield of fluorescence) ([1]; solvent MeOH) | ε (molar extinction coefficient) ([1]; solvent MeOH) | ε × Φ ([1]; solvent MeOH) | quantum yield after reaction with β-mercaptoethanol relative to underivatized fluorophore [1] | effect on peripheral Cdc42 activation (Cdc42 activation) |
| --- | --- | --- | --- | --- | --- | --- | --- | --- | --- | --- | --- | --- | --- | --- | --- | --- | --- |
| O=C(CSCCO)Nc1ccc2c(c1)S\C(=C/C=C/C=C1/C(=O)c3ccccc3S1(=O)=O)N2CCCS(=O)(=O)[O-].[Na+] [dye 2g, Sodium 3-[(2Z)-6-({[(2-Hydroxyethyl)thio]acetyl}amino)-2-[(2E,4Z)-4-(1,1-dioxido-3-oxo-1-benzothien-2(3H)-ylidene)but-2-enylidene]-1,3-benzothiazol-3(2H)-yl]propane-1-sulfonate] |  |  |  |  |  |  |  |  |  |  | 629 | 610 | 0.054 | (138000) | 8000 | returned the quantum yield of S—SO to that of the underivatized fluorophore |  |
| C=C1[C@@H](C)[C@H]2[C@H](Cc3ccccc3)NC(=O)[C@]23[C@H](OC(C)=O)/C=C/[C@@](C)(O)C(=O)[C@@H](C)C/C=C/[C@H]3[C@@H]1O [cytochalasin D] |  |  |  |  |  |  |  |  |  |  |  |  |  |  |  |  | Only nocodazole and colchicine markedly affected peripheral Cdc42 activation |
| Sodium 3-[(2E)-6-[({2-[(2,5-Dioxopyrrolidin-1-yl)oxy]-2-oxoethoxy}-acetyl)methylaminol]-2-[(2E,4Z)-4-(1,1-dioxido-3-oxo-1-benzothien-2(3H)-ylidene)but-2-enylidene]-1,3-benzothiazol-3(2H)-yl]propane-1-sulfonate [dye 2f] | 626 | 608 | 0.12 | (134000) |  | 618 |  |  |  |  | 621 | 603 | 0.06 | (142000) |  |  |  |

Now from value to molecule, other results behind:

| Emission λmax ([1]; solvent BuOH) [nm] | absorption λmax ([1]; solvent BuOH) [nm] | Φ (quantum yield of fluorescence) ([1]; solvent BuOH) | ε (molar extinction coefficient) ([1]; solvent BuOH) | ε × Φ ([1]; solvent BuOH) | Emission λmax ([1]; solvent H2O) [nm] | absorption λmax ([1]; solvent H2O) [nm] | Φ (quantum yield of fluorescence) ([1]; solvent H2O) | ε (molar extinction coefficient) ([1]; solvent H2O) | ε × Φ ([1]; solvent H2O) | Emission λmax ([1]; solvent MeOH) [nm] | absorption λmax ([1]; solvent MeOH) [nm] | Φ (quantum yield of fluorescence) ([1]; solvent MeOH) | ε (molar extinction coefficient) ([1]; solvent MeOH) | ε × Φ ([1]; solvent MeOH) | Molecule | quantum yield after reaction with β-mercaptoethanol relative to underivatized fluorophore [1] | effect on peripheral Cdc42 activation (Cdc42 activation) |
| --- | --- | --- | --- | --- | --- | --- | --- | --- | --- | --- | --- | --- | --- | --- | --- | --- | --- |
| 639 | 607 | 0.06 | (150000) | 9000 | 630 | 599 | 0.004 | (143000) | 600 | 634 | 601 | 0.01 | (138000) | 1400 | CC1(C)/C(=C/C=C/C=C2/C(=O)c3ccccc3S2(=O)=O)N(CCCS(=O)(=O)[O-])c2ccc(NC(=O)CI)cc21.[Na+] [dye 4e, Sodium 3-{(2Z)-5-[(Iodoacetyl)amino]-2-[(2E,4Z)-4-(1,1-dioxido-3-oxo-1-benzothien-2(3H)-ylidene)but-2-enylidene]-3,3-dimethyl-2,3-dihydro-1H-indol-1-yl}propane-1-sulfonate] |  |  |
| 623 | 590 | 0.19 | (134000) | 26000 | 616 | 594 | 0.01 | (150000) | 1500 | 620 | 586 | 0.05 | (140000) | 7000 | CN(C(=O)COCC(=O)ON1C(=O)CCC1=O)c1ccc2c(c1)C(C)(C)/C(=C/C=C/C=C1/C(=O)c3ccccc3S1(=O)=O)N2CCCS(=O)(=O)[O-].[Na+] [dye 4f, Sodium 3-{(2Z)-5-[({2-[(2,5-Dioxopyrrolidin-1-yl)oxy]-2-oxoethoxy}acetyl)methylamino]-2-[(2E,4Z)-4-(1,1-dioxido-3-oxo-1-benzothien-2(3H)-ylidene)but-2-enylidene]-3,3-dimethyl-2,3-dihydro-1H-indol-1-yl}propane-1-sulfonate] |  |  |
| 628 | 609 | 0.12 | (142000) | 17000 | 620 | 600 | 0.02 | (140000) | 3000 | 621 | 601 | 0.04 | (140000) | 6000 | CC1(C)\C(=C/C=C/C=C2/C(=O)c3ccccc3S2(=O)=O)N(CCCS(=O)(=O)[O-])c2ccc(NC(=O)CSCCO)cc21.[Na+] [dye 4g, Sodium 3-{(2E)-5-({[(2-Hydroxyethyl)thio]acetyl}amino)-2-[(2E,4Z)-4-(1,1-dioxido-3-oxo-1-benzothien-2(3H)-ylidene)but-2-enylidene]-3,3-dimethyl-2,3-dihydro-2,3-dihydro-1H-indol-1-yl}propane-1-sulfonate] | half that of the unaltered fluorophore |  |
